The values that follow come from paper PMC10714399, “Open Source Antibiotics: Simple Diarylimidazoles Are Potent against Methicillin-Resistant Staphylococcus aureus” (ACS Infectious Diseases, 2023).

The subject of data set [1] is human red blood cells. The format is cell-based. The note with it: red cells of human, 20 h. The procedure: The absorbance was measured using a Tecan M1000 Pro monochromator plate reader.
(1 picture or pasted object on this page, not shown here)

On the set-up of data set [2]: method as in earlier work. The note with it: 48 h XTT assay; read-out: CC50, cytotoxicity; cited from earlier work. A general note: Formazan colour is commonly taken as a measure of viable cells.
The subject of data set [3] is TGF-β1-induced fibronectin mRNA formation. Also on record: method as in earlier work. Particulars: cited from earlier work.
The target in data set [4] is transforming growth factor β1 (TGF-β1) type I receptor (ALK5). Also noted: method as in earlier work. Particulars: read-out: IC50 against ALK5; cited from earlier work.
Data set [5] relates to p38 kinase. Also on record: method as in earlier work. Particulars: cited from earlier work.
The subject of data set [6] is molecular beacon DNA. Nature of the data set: DNA binding assay (molecular beacon melt curve). The note with it: compound 0-5 μM, DNA 400 nM. An excerpt: An attempt to characterize the mechanism of toxicity led to testing compounds’ interactions with DNA molecular beacons, which are short strands of DNA tagged with a donor–acceptor pair of fluorophores. The proximity between the fluorophores when the DNA strand is correctly folded results in no fluorescence from the donor; should a compound interfere with DNA folding, a change in the melting temperature will be observed.
A molecular beacon DNA sequence [FAM] CGTATATATATATTTTTATATATATACG [TAM] (Eurofin Genomics, Germany) labeled with fluorescein–tetramethylrhodamine donor–acceptor pair was dissolved in nuclease-free water at 100 μM, aliquoted, and kept frozen at −20 °C.
A working 2 μM DNA solution and compound dilution at 2 and 20 μM in hybridization buffer (10 mM Tris, 1 mM EDTA, 50 mM NaCl, 1.5 mM MgCl2 pH 8) was made. DNA was annealed by heating up to 95 °C on a heat block and allowing to cool down to room temperature. […]
Measurements on the prepared plates were made on an Applied Biosystems 7500/7500 FastReal-Time PCR System (ThermoFisher, UK). A standard melt curve experiment was setup where temperature was ramped up from 15 to 90 °C at a 1% step gradient and fluorescence was monitored for filters 1 (FAM) and 3 (TAMRA). Fluorescence first derivatives against temperature were exported to Microsoft Excel and peak fitting was done using Origin 2022B.

Structures are written as SMILES.

Turning to `CC[C@H](C)[C@H](NC(=O)CN)C(=O)NCC(=O)N[C@@H](C)C(=O)N[C@H](C(=O)N[C@@H](CC(C)C)C(=O)N[C@@H](CCCCN)C(=O)N[C@H](C(=O)N[C@@H](CC(C)C)C(=O)N[C@H](C(=O)N[C@H](C(=O)NCC(=O)N[C@@H](CC(C)C)C(=O)N1CCC[C@H]1C(=O)N[C@@H](C)C(=O)N[C@@H](CC(C)C)C(=O)N[C@H](C(=O)N[C@@H](CO)C(=O)N[C@@H](Cc1c[nH]c2ccccc12)C(=O)N[C@H](C(=O)N[C@@H](CCCCN)C(=O)N[C@@H](CCCNC(=N)N)C(=O)N[C@@H](CCCCN)C(=O)N[C@@H](CCCNC(=N)N)C(=O)N[C@@H](CCC(N)=O)C(=O)N[C@@H](CCC(N)=O)C(N)=O)[C@@H](C)CC)[C@@H](C)CC)[C@@H](C)O)[C@@H](C)O)C(C)C)C(C)C` [Melittin], the “HC10 (concentration at 10% haemolysis)” value in data set [1] is reported as 2.7 µg/mL.

Usually CC50 stands for the concentration giving 50% cytotoxicity. Usually IC50 stands for the point on the concentration scale where inhibition reaches its midpoint. On to `NC(=O)c1ccc(-c2nc(-c3ccc4c(c3)OCO4)c(-c3ccccn3)[nH]2)cc1` [SB-431542], for which the CC50 in data set [2] was greater than 30000 nM. Also, the values for the IC50 in data set [3] and in data set [4] were 50 nM and 94 nM, respectively. Further, the “inhibition of p38 kinase” value in data set [5] is reported as “no inhibition”.

As for `COc1cccc2c1C(=O)c1c(O)c3c(c(O)c1C2=O)C[C@@](O)(C(=O)CO)C[C@@H]3O[C@H]1C[C@H](N)[C@H](O)[C@H](C)O1` [doxorubicin], in data set [6], the “effect on DNA molecular beacon melting temperature” value was “dose–response behavior”.
